Earlier results on twelve compounds are cited in US20050196503A1, “High-intensity sweetener-polyol compositions” (priority 2004, published 2005).

Residues, ends and D or L forms follow the SMILES beside them.

For this data set the following is noted: for sweetness strength or sweetening potency, times that of sucrose: in terms of weight ratio; for Approximate sweetness (sucrose = 1): relative to sucrose, weight basis; for sweetness relative to sucrose: percent of the sweetness of sucrose.

With `CC1=CC(=O)[N-]S(=O)(=O)O1.[K+]` [Acesulfame-K], the “sweetness strength or sweetening potency, times that of sucrose” value (“sweetness strength or sweetening potency” below) was “about 200 times” and the “Approximate sweetness (sucrose = 1)” value is recorded as 200.
Turning to `COC(=O)[C@H](Cc1ccccc1)NC(=O)[C@@H](N)CC(=O)O` [Aspartame] (H-Asp-Phe-OMe), the “sweetness strength or sweetening potency” value is “about 180 times” and the “Approximate sweetness (sucrose = 1)” value is recorded as 180.
In the case of `OC[C@@H](O)[C@@H](O)CO` [Erythritol], the “Approximate sweetness (sucrose = 1)” value is on record as 0.7.
On to `OC[C@@H](O)[C@@H](O[C@@H]1O[C@H](CO)[C@H](O)[C@H](O)[C@H]1O)[C@H](O)[C@@H](O)CO` [Lactitol], for which the “Approximate sweetness (sucrose = 1)” value is given as 0.4.
Regarding `OC[C@@H](O)[C@@H](O[C@H]1O[C@H](CO)[C@@H](O)[C@H](O)[C@H]1O)[C@H](O)[C@@H](O)CO` [Malitol, maltitol], the “sweetness relative to sucrose” value is 90% and the “Approximate sweetness (sucrose = 1)” value is recorded as 0.9.
Consider `OC[C@@H](O)[C@@H](O)[C@H](O)[C@H](O)CO` [Mannitol], for which the “Approximate sweetness (sucrose = 1)” value is reported as 0.7.
On to `COC(=O)[C@H](Cc1ccccc1)NC(=O)[C@H](CC(=O)O)NCCC(C)(C)C` [Neotame], for which the “sweetness strength or sweetening potency” value is recorded as ~10,000 times and the “Approximate sweetness (sucrose = 1)” value is 8,000.
With `O=C1NS(=O)(=O)c2ccccc21` [Saccharin], the “Approximate sweetness (sucrose = 1)” value is recorded as 300.
As to `OC[C@@H](O)[C@@H](O)[C@H](O)[C@@H](O)CO` [Sorbitol], the “Approximate sweetness (sucrose = 1)” value is 0.6.
As to `OC[C@H]1O[C@H](O[C@]2(CCl)O[C@H](CCl)[C@@H](O)[C@@H]2O)[C@H](O)[C@@H](O)[C@H]1Cl` [Sucralose], the “Approximate sweetness (sucrose = 1)” value is reported as 600.
As to `OC[C@@H](O)[C@H](O)[C@@H](O)CO` [Xylitol], the “sweetness relative to sucrose” value is given as 100% and the “Approximate sweetness (sucrose = 1)” value is 1.0.
As for Isomalt [Isomalt (platinit)], the “Approximate sweetness (sucrose = 1)” value is reported as 0.45-0.65.
